pIC50: −log10 of the molar value. Counter-ions that a name gives are not always drawn.

Chain of hNav1.7 (Q15858 other isoform, or with tags, fused parts or gaps): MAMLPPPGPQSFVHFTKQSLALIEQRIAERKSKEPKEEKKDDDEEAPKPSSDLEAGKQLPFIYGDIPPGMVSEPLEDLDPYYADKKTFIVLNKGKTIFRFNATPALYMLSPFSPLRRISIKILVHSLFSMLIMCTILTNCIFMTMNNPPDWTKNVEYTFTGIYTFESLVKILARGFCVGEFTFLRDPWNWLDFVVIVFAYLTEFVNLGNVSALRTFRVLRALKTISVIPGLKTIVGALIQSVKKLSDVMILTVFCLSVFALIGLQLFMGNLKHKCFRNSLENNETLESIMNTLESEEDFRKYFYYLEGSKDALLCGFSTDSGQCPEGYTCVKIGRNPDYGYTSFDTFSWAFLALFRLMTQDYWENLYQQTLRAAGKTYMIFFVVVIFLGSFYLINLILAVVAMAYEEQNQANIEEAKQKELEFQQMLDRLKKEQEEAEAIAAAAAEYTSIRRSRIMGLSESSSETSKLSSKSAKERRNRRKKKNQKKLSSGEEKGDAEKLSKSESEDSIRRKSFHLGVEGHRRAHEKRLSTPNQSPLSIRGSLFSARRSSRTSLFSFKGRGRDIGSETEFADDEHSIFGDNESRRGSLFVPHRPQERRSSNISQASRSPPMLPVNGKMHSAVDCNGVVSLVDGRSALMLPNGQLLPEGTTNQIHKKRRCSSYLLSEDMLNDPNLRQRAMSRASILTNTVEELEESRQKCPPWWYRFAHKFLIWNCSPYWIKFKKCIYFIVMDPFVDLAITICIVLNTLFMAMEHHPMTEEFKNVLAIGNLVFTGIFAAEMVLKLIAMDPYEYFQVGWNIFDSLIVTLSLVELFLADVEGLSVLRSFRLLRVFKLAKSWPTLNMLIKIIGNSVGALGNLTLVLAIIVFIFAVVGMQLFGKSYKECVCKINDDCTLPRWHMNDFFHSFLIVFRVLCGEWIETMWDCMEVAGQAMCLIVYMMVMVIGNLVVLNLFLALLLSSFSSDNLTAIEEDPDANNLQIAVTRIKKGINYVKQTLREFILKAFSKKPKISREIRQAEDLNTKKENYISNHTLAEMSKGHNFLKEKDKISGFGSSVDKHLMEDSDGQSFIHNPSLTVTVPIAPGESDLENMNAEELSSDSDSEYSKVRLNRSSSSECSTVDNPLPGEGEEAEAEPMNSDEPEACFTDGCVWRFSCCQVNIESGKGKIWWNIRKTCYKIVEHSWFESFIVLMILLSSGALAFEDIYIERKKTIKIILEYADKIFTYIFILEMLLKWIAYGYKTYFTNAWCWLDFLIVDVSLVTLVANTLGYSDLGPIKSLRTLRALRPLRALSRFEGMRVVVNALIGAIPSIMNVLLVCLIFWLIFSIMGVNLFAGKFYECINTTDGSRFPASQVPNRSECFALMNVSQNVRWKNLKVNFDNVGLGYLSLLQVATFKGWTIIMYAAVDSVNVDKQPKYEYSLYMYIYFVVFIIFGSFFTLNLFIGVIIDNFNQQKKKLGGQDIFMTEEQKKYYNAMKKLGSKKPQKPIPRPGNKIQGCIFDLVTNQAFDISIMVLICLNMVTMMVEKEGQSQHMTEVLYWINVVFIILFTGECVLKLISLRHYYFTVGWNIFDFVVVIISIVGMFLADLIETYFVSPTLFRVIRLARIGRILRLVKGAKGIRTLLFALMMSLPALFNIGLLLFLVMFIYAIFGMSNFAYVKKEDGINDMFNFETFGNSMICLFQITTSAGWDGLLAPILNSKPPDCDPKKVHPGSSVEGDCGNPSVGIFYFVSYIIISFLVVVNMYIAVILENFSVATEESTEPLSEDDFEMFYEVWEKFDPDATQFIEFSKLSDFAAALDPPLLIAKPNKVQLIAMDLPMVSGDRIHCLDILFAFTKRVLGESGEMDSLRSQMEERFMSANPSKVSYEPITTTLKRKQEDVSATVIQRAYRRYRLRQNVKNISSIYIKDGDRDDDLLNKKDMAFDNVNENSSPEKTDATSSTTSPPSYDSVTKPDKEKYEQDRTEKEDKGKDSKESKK
Chain of hNav1.7 (Q07699 19-218 partner): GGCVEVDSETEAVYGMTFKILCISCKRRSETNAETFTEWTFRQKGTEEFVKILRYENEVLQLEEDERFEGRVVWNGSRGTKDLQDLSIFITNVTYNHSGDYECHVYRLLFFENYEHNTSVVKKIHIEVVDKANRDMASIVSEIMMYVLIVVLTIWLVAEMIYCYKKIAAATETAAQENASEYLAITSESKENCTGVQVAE

The first test has as its target hNav1.7 (Homo sapiens (Human), UniProt Q15858). Kind of test: Tritiated sulfonamide competitive binding to membranes from cells expressing hNav1.7 and the β1 subunit.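 Note: Filter-bound radioactivity counted by liquid scintillation, nonspecific binding defined with excess unlabelled ligand, IC50 fitted to percent inhibition of specific binding.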
Settings: not given
The compound `C[C@@H]1CN(Cc2cc(F)c(C(=O)NS(=O)(=O)C3CC3)cc2C2CC2)CCN1[C@H](C)c1cc(Cl)cc(Cl)c1` [Example 570, 5-cyclopropyl-N-(cyclopropylsulfonyl)-4-(((R)-4-((R)-1-(3,5-dichlorophenyl)ethyl)-3-methylpiperazin-1-yl)methyl)-2-fluorobenzamide] had a pIC50 of 8.54.
Still for that read-out and setting: under `C[C@H]1CN(Cc2cc(F)c(C(=O)NS(C)(=O)=O)cc2C2CC2)CCN1[C@@H](C)c1cc(Cl)cc(Cl)c1` [Example 567, 5-cyclopropyl-4-(((S)-4-((S)-1-(3,5-dichlorophenyl)ethyl)-3-methylpiperazin-1-yl)methyl)-2-fluoro-N-(methylsulfonyl)benzamide] stands 7.82.
Still for that read-out and setting: under `CS(=O)(=O)NC(=O)c1cc(C2CC2)c(CN2CCC(Oc3ncc(C(F)(F)F)cc3Cl)CC2)cc1F` [Example 523, 4-((4-((3-chloro-5-(trifluoromethyl)pyridin-2-yl)oxy)piperidin-1-yl)methyl)-5-cyclopropyl-2-fluoro-N-(methylsulfonyl)benzamide, trifluoroacetic acid salt] stands 8.24; under `O=C(NS(=O)(=O)N1CCC1)c1cc(C2CC2)c(O[C@@H]2CCCN(Cc3ccccc3Cl)C2)cc1F` [Example 25, (R)—N-(azetidin-1-ylsulfonyl)-4-((1-(2-chlorobenzyl)piperidin-3-yl)oxy)-5-cyclopropyl-2-fluorobenzamide], 8.49.
Still for that read-out and setting: under `CS(=O)(=O)NC(=O)c1cc(C2CC2)c(CN2CCC(Oc3ccc(Cl)cc3Cl)CC2)cc1F` [Example 546, 5-cyclopropyl-4-((4-(2,4-dichlorophenoxy)piperidin-1-yl)methyl)-2-fluoro-N-(methylsulfonyl)benzamide, trifluoroacetic acid salt] stands 7.92; under `CS(=O)(=O)NC(=O)c1cc(C2CC2)c(CN2CCC(Oc3cccc(C(F)(F)F)c3)CC2)cc1F` [Example 501, 5-cyclopropyl-2-fluoro-N-(methylsulfonyl)-4-((4-(3-(trifluoromethyl)phenoxy)piperidin-1-yl)methyl)benzamide, trifluoroacetic acid salt], 7.87; under `O=C(NS(=O)(=O)C1CC1)c1cc(C2CC2)c(CN2CCN(S(=O)(=O)c3cc(Cl)cc(Cl)c3)CC2)cc1F` [Example 527, 5-cyclopropyl-N-(cyclopropylsulfonyl)-4-((4-((3,5-dichlorophenyl)sulfonyl)piperazin-1-yl)methyl)-2-fluorobenzamide, trifluoroacetic acid salt], 8.00.

Still in this test, the particulars now being: read-out: Ligand Binding Assay; 100 pM [3H]compound, membranes with hNav1.7 and β1 subunit, 18 h, room temperature.
With `CCCCS(=O)(=O)NC(=O)c1cc(C2CC2)c(OCC2CN(C(c3ccccc3)c3ccccc3)C2)cc1F` [Example 65, 4-((1-benzhydrylazetidin-3-yl)methoxy)-N-(butylsulfonyl)-5-cyclopropyl-2-fluorobenzamide], the pIC50 was 7.47.
Same read-out and setting: under `O=C(NS(=O)(=O)C1CC1)c1cc(C2CC2)c(OCC2CCN(S(=O)(=O)C3CCOCC3)CC2)cc1F` [Example 377, 5-cyclopropyl-N-(cyclopropylsulfonyl)-2-fluoro-4-((1-((tetrahydro-2H-pyran-4-yl)sulfonyl)piperidin-4-yl)methoxy)benzamide] stands 5.90; under `CS(=O)(=O)NC(=O)c1cc(C2CC2)c(OCC2CCN(Cc3ccc(F)cc3C(F)(F)F)CC2)cc1F` [Example 586, 5-cyclopropyl-2-fluoro-4-((1-(4-fluoro-2-(trifluoromethyl)benzyl)piperidin-4-yl)methoxy)-N-(methylsulfonyl)benzamide], 8.28.
On to `CS(=O)(=O)NC(=O)c1cc(C2CC2)c(O[C@H]2CN(Cc3ccc(F)cc3Cl)CC(F)(F)C2)cc1F` [Example 445, (R)-4-((1-(2-chloro-4-fluorobenzyl)-5,5-difluoropiperidin-3-yl)oxy)-5-cyclopropyl-2-fluoro-N-(methylsulfonyl)benzamide], for which the pIC50 was 8.21.
Still for that read-out and setting: under `C[C@@H](c1cc(Cl)cc(Cl)c1)N1CCC(COc2cc(F)c(C(=O)NS(=O)(=O)N3CCC3)cc2C2CC2)CC1` (single isomer, unassigned) [Example 272] stands 8.38; under “5-Cyclopropyl-2-fluoro-N-(methylsulfonyl)-4-((1-(1-phenylethyl)-piperidin-4-yl)methoxy)benzamide [Example 146]”, 6.56.
Still for that read-out and setting: the value for `CS(=O)(=O)NC(=O)c1cc(C2CC2)c(OCC2CCN(Cc3ccc(Cl)c(Cl)c3)CC2)cc1F` [Example 147, 5-Cyclopropyl-4-((1-(3,4-dichlorobenzyl)piperidin-4-yl)methoxy)-2-fluoro-N-(methylsulfonyl)benzamide] was 8.22.
On the same count and under the same terms, the value for `CS(=O)(=O)NC(=O)c1cc(C2CC2)c(OCC2CCN(Cc3ncccc3C(F)(F)F)CC2)cc1F` [Example 365, 5-cyclopropyl-2-fluoro-N-(methylsulfonyl)-4-((1-((3-(trifluoromethyl)pyridin-2-yl)methyl)piperidin-4-yl)methoxy)benzamide, trifluoroacetic acid salt] was 6.49; that for `CC1(COc2cc(F)c(C(=O)NS(C)(=O)=O)cc2C2CC2)CCN(Cc2cc(C(F)(F)F)cc(Cl)c2F)CC1` [Example 141, 4-((1-(3-chloro-2-fluoro-5-(trifluoromethyl)benzyl)-4-methylpiperidin-4-yl)methoxy)-5-cyclopropyl-2-fluoro-N-(methylsulfonyl)benzamide] was 8.41.
Take `C[C@H](c1ccccc1)N1CC(COc2cc(F)c(C(=O)NS(C)(=O)=O)cc2C2CC2)C1` [Example 85, (R)-5-Cyclopropyl-2-fluoro-N-(methylsulfonyl)-4-((1-(1-phenylethyl)azetidin-3-yl)methoxy)benzamide]: the pIC50 was 5.73.
As for `CC(C)c1nc(CN2CCC(COc3cc(F)c(C(=O)NS(=O)(=O)C4CC4)cc3C3CC3)CC2)cs1` [Example 355, 5-cyclopropyl-N-(cyclopropylsulfonyl)-2-fluoro-4-((1-((2-isopropylthiazol-4-yl)methyl)piperidin-4-yl)methoxy)benzamide trifluoroacetic acid salt], the pIC50 was 6.93.
On the same count and under the same terms, under `CS(=O)(=O)NC(=O)c1cc(C2CC2)c(OCC2CCN(c3ccccc3Cl)CC2)cc1F` [Example 293, 4-((1-(2-Chlorophenyl)piperidin-4-yl)methoxy)-5-cyclopropyl-2-fluoro-N-(methylsulfonyl)benzamide] stands 8.28; under `CCS(=O)(=O)NC(=O)c1cc(C2CC2)c(OCC2CCN([C@@H](C)c3ccc(F)cc3Cl)CC2)cc1F` (single isomer, unassigned) [Example 245], 8.10.
The same measure, in the same setting: under `CS(=O)(=O)NC(=O)c1cc(C2CC2)c(OCC2CCN(C(=O)c3ccc(Cl)cc3Cl)CC2)cc1F` [Example 257, 5-Cyclopropyl-4-((1-(2,4-dichlorobenzoyl)piperidin-4-yl)methoxy)-2-fluoro-N-(methylsulfonyl)benzamide] stands 6.57; under `O=C(NS(=O)(=O)C1CC1)c1cc(C2CC2)c(OCC2CCN(S(=O)(=O)c3ccc(F)c(Cl)c3)CC2)cc1F` [Example 383, 4-((1-((3-chloro-4-fluorophenyl)sulfonyl)piperidin-4-yl)methoxy)-5-cyclopropyl-N-(cyclopropylsulfonyl)-2-fluorobenzamide], 7.83.
Still for that read-out and setting: under `C[C@H](c1cc(Cl)cc(Cl)c1)N1CCC(COc2cc(F)c(C(=O)NS(=O)(=O)C3CC3)cc2Cl)CC1` [Example 405, (R)-5-chloro-N-(cyclopropylsulfonyl)-4-((1-(1-(3,5-dichlorophenyl)ethyl)piperidin-4-yl)methoxy)-2-fluorobenzamide, trifluoroacetic acid salt] stands 7.82; under `CS(=O)(=O)NC(=O)c1cc(C2CC2)c(OCC2CCN(Cc3ccc(Br)c(Cl)c3)CC2)cc1F` [Example 587, 4-((1-(4-bromo-3-chlorobenzyl)piperidin-4-yl)methoxy)-5-cyclopropyl-2-fluoro-N-(methylsulfonyl)benzamide], 8.29.
Regarding `CS(=O)(=O)NC(=O)c1cc(C2CC2)c(OCC2CCN(Cc3ccc(F)cc3Cl)CC2)cc1F` [Example 105, 4-((1-(2-Chloro-4-fluorobenzyl)piperidin-4-yl)methoxy)-5-cyclopropyl-2-fluoro-N-(methylsulfonyl)benzamide], the pIC50 is 7.79.
The same measure, in the same setting: the value for `CC1(Oc2cc(C(F)(F)F)c(Cl)cn2)CCN(Cc2cc(F)c(C(=O)NS(=O)(=O)C3CC3)cc2C2CC2)CC1` [Example 472, 4-((4-((5-chloro-4-(trifluoromethyl)pyridin-2-yl)oxy)-4-methylpiperidin-1-yl)methyl)-5-cyclopropyl-N-(cyclopropylsulfonyl)-2-fluorobenzamide, trifluoroacetic acid salt] was 8.44; that for `CS(=O)(=O)NC(=O)c1cc(C2CC2)c(OC[C@@H]2CCN(Cc3cc(Cl)cc(Cl)c3)C(=O)C2)cc1F` (single isomer, unassigned) [Example 234] was 6.77; that for `CS(=O)(=O)NC(=O)c1cc(C2CC2)c(OCC2CN([C@@H](c3ccccc3)c3cccnc3)C2)cc1F` [Example 82] was 6.39.
Same read-out and setting: the value for `CS(=O)(=O)NC(=O)c1cc(C2CC2)c(OCC2CCN(Cc3ccc(C(F)(F)F)cc3)CC2)cc1F` [Example 126] was 6.55; that for `CC1(COc2cc(F)c(C(=O)NS(C)(=O)=O)cc2C2CC2)CCN(c2cc(C(F)(F)F)c(Cl)cn2)CC1` [Example 556, 4-((1-(5-chloro-4-(trifluoromethyl)pyridin-2-yl)-4-methylpiperidin-4-yl)methoxy)-5-cyclopropyl-2-fluoro-N-(methylsulfonyl)benzamide] was 8.68; that for `CS(=O)(=O)NC(=O)c1cc(C2CC2)c(O[C@@H]2CCCN(Cc3cccc(C(F)(F)F)c3)C2)cc1F` [Example 319, (R)-5-cyclopropyl-2-fluoro-N-(methylsulfonyl)-4-((1-(3-(trifluoromethyl)benzyl)piperidin-3-yl)oxy)benzamide] was 8.27.
The same measure, in the same setting: the value for `O=C(NS(=O)(=O)C1CC1)c1cc(C2CC2)c(OCC2CN(c3cc(C(F)(F)F)c(Cl)cn3)C2)cc1F` [Example 543, 4-((1-(5-chloro-4-(trifluoromethyl)pyridin-2-yl)azetidin-3-yl)methoxy)-5-cyclopropyl-N-(cyclopropylsulfonyl)-2-fluorobenzamide] was 7.93.

These data come from patent publication US9546164B2 (GENENTECH, INC., priority 2013, dated 2017).
